In assay [1] the test system is NLRP3 inflammasome (IL-1β production in THP-1 cells). In words: IL-1β TR-FRET Assay (percentage of inhibition at 300 nM, 6 μM or 10 μM). The conditions noted are these: Homo sapiens, THP-1, 300 nM, LPS priming, ATP activation, read-out: IL-1β inhibitory rate at 300 nM (%). The format is cell-based, human. In short, it runs like this:
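Percent inhibition of IL-1β used DMSO wells as 0% and 3 μM MCC-950 wells as full inhibition, with supernatant read by HTRF. Beforehand, IFN-γ-differentiated (25 ng/mL, 24 h), LPS-primed (50 ng/mL, 24 h) THP-1 cells received compound 30 min before inflammasome activation by 20 mM ATP for 2 h.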

Assay [2] deals with TNF-α (NF-κB pathway, THP-1 cells). In words: TNF-α Assay (IC50). The following applies: Homo sapiens, 600 ng/mL LPS, 3 hours. The format is cell-based, human. In outline: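 Supernatant TNF-α quantified by ELISA after 3 h stimulation with 600 ng/mL LPS at 37 °C, following 30 min compound preincubation. Cells: IFN-differentiated (25 ng/mL, 24 h) THP-1 macrophages, 40,000/well, serum-free. IC50 by sigmoidal fit of % inhibition, with TPCA-1 as 100% control.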

In general, IC50 refers to the concentration that inhibits the measured activity by half. A low value points to inhibition by little substance.

In the case of `CCOc1nc2nn(-c3c(C)cc(OC)cc3C)cc2c(=O)[nH]1` [Example 145, 6-ethoxy-2-(4-methoxy-2,6-dimethylphenyl)-2,5-dihydro-4H-pyrazolo[3,4-d]pyrimidin-4-one], in assay [1], the inhibition at 0.3 µM is 106%. The same compound displayed an IC50 in assay [2] above 30 µM.
On to `CCCCc1nc2nn(-c3c(C)cc(C)cc3O)cc2c(=O)[nH]1` [Example 17, 6-butyl-2-(2-hydroxy-4,6-dimethylphenyl)-2,5-dihydro-4H-pyrazolo[3,4-d]pyrimidin-4-one], for which, in assay [1], the inhibition at 0.3 µM stood at 99%. In assay [2], this compound displayed an IC50 above 30 µM.
In the same order, the values of `CO[C@H](C)COc1nc2nn(-c3c(F)cc(C4CC4)cc3C(F)F)cc2c(=O)[nH]1` [Example 200, 2-[4-cyclopropyl-2-(difluoromethyl)-6-fluorophenyl]-6-[(2R)-2-methoxypropoxy]-2,5-dihydro-4H-pyrazolo[3,4-d]pyrimidin-4-one] are 98% and above 30 µM.
